Reference: patent US8614327B2 (Vertex Pharmaceuticals Incorporated, priority 2004, dated 2013)

Target: T1, ΔF508-CFTR (Homo sapiens, UniProt P13569, DEL508-508)
T1 construct: expressed in transfected cells
Assay: Membrane potential optical (FRET/VIPR) assay, identification of potentiator compounds
Format: cell-based
Details: Table 3, assay not given; for % Activity: relative efficacy
Method in brief: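 Double-addition potentiator screen: compound delivered in gluconate-substituted Cl^--free medium, membrane potential followed via CC2-DMPE/DiSBAC2(3) FRET on VIPR. Cells were ΔF508-CFTR-expressing NIH3T3 mouse fibroblasts, held 2 h at 37° C. then 24 h at 27° C. before assay.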

T1 sequence (P13569 with tags, fused parts or gaps DEL508-508): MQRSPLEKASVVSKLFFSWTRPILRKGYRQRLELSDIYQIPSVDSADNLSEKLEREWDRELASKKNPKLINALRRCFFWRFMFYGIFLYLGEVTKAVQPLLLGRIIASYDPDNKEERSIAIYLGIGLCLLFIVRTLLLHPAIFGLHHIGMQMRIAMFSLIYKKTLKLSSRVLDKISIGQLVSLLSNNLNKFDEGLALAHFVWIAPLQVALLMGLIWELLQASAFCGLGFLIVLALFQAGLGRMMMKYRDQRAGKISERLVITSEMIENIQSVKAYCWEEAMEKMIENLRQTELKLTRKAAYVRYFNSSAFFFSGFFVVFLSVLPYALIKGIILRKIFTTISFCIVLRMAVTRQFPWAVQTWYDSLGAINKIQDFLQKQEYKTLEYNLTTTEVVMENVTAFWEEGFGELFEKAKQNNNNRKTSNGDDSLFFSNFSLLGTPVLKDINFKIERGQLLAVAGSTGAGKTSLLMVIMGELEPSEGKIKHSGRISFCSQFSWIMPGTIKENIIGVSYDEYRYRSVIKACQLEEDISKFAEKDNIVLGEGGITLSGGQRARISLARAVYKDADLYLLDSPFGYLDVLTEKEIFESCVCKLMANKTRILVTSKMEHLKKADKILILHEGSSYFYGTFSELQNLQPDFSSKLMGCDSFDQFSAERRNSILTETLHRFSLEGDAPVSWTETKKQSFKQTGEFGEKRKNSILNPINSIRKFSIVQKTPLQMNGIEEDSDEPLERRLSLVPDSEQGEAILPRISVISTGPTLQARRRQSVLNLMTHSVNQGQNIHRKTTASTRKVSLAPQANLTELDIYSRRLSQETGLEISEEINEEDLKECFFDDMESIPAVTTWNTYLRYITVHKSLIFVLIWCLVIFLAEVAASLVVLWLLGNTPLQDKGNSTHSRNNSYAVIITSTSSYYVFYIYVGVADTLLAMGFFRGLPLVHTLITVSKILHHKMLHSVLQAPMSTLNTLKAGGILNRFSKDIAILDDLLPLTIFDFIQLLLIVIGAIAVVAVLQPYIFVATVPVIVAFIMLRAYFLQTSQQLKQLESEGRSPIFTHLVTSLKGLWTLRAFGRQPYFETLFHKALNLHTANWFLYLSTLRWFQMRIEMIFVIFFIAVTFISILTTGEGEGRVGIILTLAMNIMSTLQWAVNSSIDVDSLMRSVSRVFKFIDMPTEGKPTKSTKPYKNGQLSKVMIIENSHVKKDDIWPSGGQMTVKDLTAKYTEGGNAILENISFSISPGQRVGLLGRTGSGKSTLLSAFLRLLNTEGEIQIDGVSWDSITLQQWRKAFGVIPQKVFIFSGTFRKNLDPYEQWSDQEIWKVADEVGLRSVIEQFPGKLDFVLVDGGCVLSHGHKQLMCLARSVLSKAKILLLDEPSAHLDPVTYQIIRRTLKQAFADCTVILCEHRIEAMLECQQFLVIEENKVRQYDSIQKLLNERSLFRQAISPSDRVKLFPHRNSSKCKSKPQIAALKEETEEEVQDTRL

Row | Structure (SMILES) | EC50 | % Activity
1 | CC(C)(C)c1cc(C(F)(F)F)c(NC(=O)c2c[nH]c3ccc(F)cc3c2=O)cc1O [Compound 509, 6-fluoro-N-[5-hydroxy-4-tert-butyl-2-(trifluoromethyl)phenyl]-4-oxo-1H-quinoline-3-carboxamide] | < 10 µM | ++ (between 25% to 100%)
2 | CC(C)(C)c1ccc(NC(=O)c2c[nH]c3ccccc3c2=O)cc1N1CCCCC1 [Compound 510, 4-oxo-N-[3-(1-piperidyl)-4-tert-butyl-phenyl]-1H-quinoline-3-carboxamide] | < 10 µM | ++ (between 25% to 100%)
3 | Cc1cccc2[nH]cc(C(=O)Nc3ccc(N4CCC[C@@H]4C)cc3C(F)(F)F)c(=O)c12 [Compound 511, (S)-5-methyl-N-(4-(2-methylpyrrolidin-1-yl)-2-(trifluoromethyl)phenyl)-4-oxo-1,4-dihydroquinoline-3-carboxamide] | < 10 µM | ++ (between 25% to 100%)
4 | O=C(Nc1cc(O)c(C2CCCC2)cc1C#CCO)c1c[nH]c2ccccc2c1=O [Compound 512, N-[4-cyclopentyl-5-hydroxy-2-(3-hydroxyprop-1-ynyl)phenyl]-4-oxo-1H-quinoline-3-carboxamide] | < 10 µM | ++ (between 25% to 100%)
5 | CN(C)[C@H]1CCN(c2ccc(NC(=O)c3c[nH]c4ccccc4c3=O)c(C(F)(F)F)c2)C1 [Compound 513, (S)-N-(4-(3-(dimethylamino)pyrrolidin-1-yl)-2-(trifluoromethyl)phenyl)-4-oxo-1,4-dihydroquinoline-3-carboxamide] | < 10 µM | ++ (between 25% to 100%)
6 | O=C(Nc1ccc(C(F)(F)F)cc1N1CCCCC1)c1c[nH]c2ccccc2c1=O [Compound 514, 4-oxo-N-[2-(1-piperidyl)-4-(trifluoromethyl)phenyl]-1H-quinoline-3-carboxamide] | < 10 µM | ++ (between 25% to 100%)
7 | CC(C)(C)c1cc(C(C)(C)C)c(NC(=O)c2c[nH]c3ccc(C(F)(F)F)cc3c2=O)cc1O [Compound 515, N-(5-hydroxy-2,4-ditert-butyl-phenyl)-4-oxo-6-(trifluoromethyl)-1H-quinoline-3-carboxamide] | – | + (<25%)
8 | Cc1cccc2[nH]cc(C(=O)Nc3ccc(N4[C@@H](C)CC[C@@H]4C)cc3C(F)(F)F)c(=O)c12 [Compound 516, N-(4-((2S,5S)-2,5-dimethylpyrrolidin-1-yl)-2-(trifluoromethyl)phenyl)-5-methyl-4-oxo-1,4-dihydroquinoline-3-carboxamide] | < 10 µM | ++ (between 25% to 100%)
9 | CCOc1cccc2c(=O)c(C(=O)Nc3ccc(C(C)C)cc3C(F)(F)F)c[nH]c12 [Compound 517, 8-ethoxy-N-[4-isopropyl-2-(trifluoromethyl)phenyl]-4-oxo-1H-quinoline-3-carboxamide] | < 10 µM | + (<25%)
10 | Cc1cc(C(C)(C)C)c(O)cc1NC(=O)c1c[nH]c2ccccc2c1=O [Compound 518, N-(5-hydroxy-2-methyl-4-tert-butyl-phenyl)-4-oxo-1H-quinoline-3-carboxamide] | < 10 µM | ++ (between 25% to 100%)
11 | CC(C)(C)c1cc(F)c(NC(=O)c2c[nH]c3c(C#N)cccc3c2=O)cc1O [Compound 519, 8-cyano-N-(2-fluoro-5-hydroxy-4-tert-butyl-phenyl)-4-oxo-1H-quinoline-3-carboxamide] | < 10 µM | ++ (between 25% to 100%)
12 | CC(C)(C)c1cc(C(C)(C)C)c(NC(=O)c2c[nH]c3cccc(C(F)(F)F)c3c2=O)cc1O [Compound 520, N-(5-hydroxy-2,4-ditert-butyl-phenyl)-4-oxo-5-(trifluoromethyl)-1H-quinoline-3-carboxamide] | < 10 µM | ++ (between 25% to 100%)
13 | CC1(c2ccc(NC(=O)c3c[nH]c4ccc(F)cc4c3=O)cc2)COC1 [Compound 521, 6-fluoro-N-[4-(3-methyloxetan-3-yl)phenyl]-4-oxo-1H-quinoline-3-carboxamide] | < 10 µM | ++ (between 25% to 100%)
